Legend:
Format in all cases: in vivo
[1] = test system: blackgrass (ALOMY, Alopecurus myosuroides); test: Greenhouse postemergence trial, visual injury on blackgrass; conditions: Table 19
Description: (§1) Greenhouse Trial Methodology—Evaluation of Postemergence Herbicidal Safening in Crops
(§2) Seeds of the desired test plant species were planted in a 90:10% v/v (volume/volume) mixture of PRO-MIX® BX (Premier Tech Horticulture, Quakertown, PA, USA) and PROFILE® GREENS GRADE™ (Profile Products LLC, Buffalo Grove, IL, USA) planting mixture, which typically has a pH of 5.2 to 6.2 and an organic matter content of at least 50 percent, in plastic pots with a surface area of 103.2 square centimeters (cm^2). When required to ensure good germination and healthy plants, a fungicide treatment and/or other chemical or physical treatment was applied. The plants were grown for 7-36 days (d) in a greenhouse with an approximate 14-hour (h) photoperiod which was maintained at about 23° C. during the day and 22° C. during the night. Nutrients and water were added on a regular basis and supplemental lighting was provided with overhead metal halide 1000-Watt lamps as necessary. The plants were employed for testing when they reached the second or third true leaf stage.
(§3) Emulsifiable concentrates of each of each pyridine carboxylate herbicide (Compound A or Compound B) were prepared at 100 grams acid equivalent per liter (g ae/L). An aliquot of each emulsifiable concentrate was placed in a 25 mL glass vial and diluted with an aqueous mixture of 1.25% (v/v) ACTIROB® B esterified rapeseed oil (Bayer Crop Science, Research Triangle Park, NC, USA) or MSO® Concentrate with LECI-TECH® methylated soybean oil (Loveland Products, Loveland, CO, USA) to obtain concentrated stock solutions at the highest application rate for each herbicide, based upon a 12 milliliter (mL) application volume at a rate of 187 liters per hectare (L/ha). The concentrated stock solutions were further diluted with an aqueous mixture of 1.25% v/v ACTIROB® B or MSO® Concentrate with LECI-TECH® to obtain stock solutions at reduced application rates for each herbicide. Spray solutions of the herbicide combinations (Compound A or Compound B plus safener) were prepared by adding weighed amounts or aliquots of the safener to the stock solutions of Compound A or Compound B to form 12-mL spray solutions in two-way combinations. […]
(§4) The treated plants and control plants were placed in a greenhouse as described above and watered by sub-irrigation to prevent wash-off of the test compounds. After 20-22 d, the condition of the test plants as compared with that of the control plants was determined visually and scored on a scale of 0 to 100 percent where 0 corresponds to no injury and 100 corresponds to complete kill.

[2] = test system: giant foxtail (SETFA, Setaria faberi); test: Greenhouse postemergence trial, visual injury on giant foxtail; conditions: Table 19
Description: as §1, §2, §3, §4

[3] = test system: wild pansy (VIOTR, Viola tricolor); test: Greenhouse postemergence trial, visual injury on wild pansy; conditions: Table 19
Description: as §1, §2, §3, §4

[4] = test system: kochia (KCHSC, Kochia scoparia); test: Greenhouse postemergence trial, visual injury on kochia; conditions: Table 19
Description: as §1, §2, §3, §4

[5] = test system: wild oat (AVEFA, Avena fatua); test: Greenhouse postemergence trial, visual injury on wild oat; conditions: Table 19
Description: as §1, §2, §3, §4

[6] = test system: Triticum aestivum (durum wheat), TRZDU; test: Greenhouse postemergence safening trial, visual injury on durum wheat
Procedure: Greenhouse Trial Methodology-Evaluation of Postemergence Herbicidal […] in Crops […] When required to ensure good germination and healthy plants, a fungicide treatment and/or other chemical or physical treatment was applied. The plants were grown for 7-36 days (d) in a greenhouse with an approximate 14-hour (h) photoperiod which was maintained at about 23° C. during the day and 22° C. during the night. Nutrients and water were added on a regular basis and supplemental lighting was provided with overhead metal halide 1000-Watt lamps as necessary. The plants were employed for testing when they reached the second or third true leaf stage. Emulsifiable concentrates of each of each pyridine carboxylate herbicide (Compound A or Compound B) were prepared at 100 grams acid equivalent per liter (g ae/L). […] The concentrated stock solutions were further diluted with an aqueous mixture of 1.25% […] or MSO® Concentrate with LECI-TECH® to obtain stock solutions at reduced application rates for each herbicide. Spray solutions of the herbicide combinations (Compound A or Compound B plus safener) were prepared by adding weighed amounts or aliquots of the safener to the stock solutions of Compound A or Compound B to form 12-mL spray solutions in two-way combinations. […] Control plants were sprayed in the same manner with the solvent blank. All herbicide (component a) application rates are given as “g ae/ha” and all safener (component b) application rates are given as “g ai/ha.” The treated plants and control plants were placed in a greenhouse as described above and watered by sub-irrigation to prevent wash-off of the test compounds.

maize (ZEAMX) = test: Greenhouse postemergence safening trial, visual injury on maize
Description: as §1, §2
(§5) Emulsifiable concentrates of each of each pyridine carboxylate herbicide (Compound A or Compound B) were prepared at 100 grams acid equivalent per liter (g ae/L). An aliquot of each emulsifiable concentrate was placed in a 25 mL glass vial and diluted with an aqueous mixture of 1.25% (v/v) ACTIROB® B esterified rapeseed oil (Bayer Crop Science, Research Triangle Park, NC, USA) or MSO® Concentrate with LECI-TECH® methylated soybean oil (Loveland Products, Loveland, CO, USA) to obtain concentrated stock solutions at the highest application rate for each herbicide, based upon a 12 milliliter (mL) application volume at a rate of 187 liters per hectare (L/ha). The concentrated stock solutions were further diluted with an aqueous mixture of 1.25% v/v ACTIROB® B or MSO® Concentrate with LECI-TECH® to obtain stock solutions at reduced application rates for each herbicide. Spray solutions of the herbicide combinations (Compound A or Compound B plus safener) were prepared by adding weighed amounts or aliquots of the safener to the stock solutions of Compound A or Compound B to form 12-mL spray solutions in two-way combinations.
(§6) The spray solutions were applied to the plant material with an overhead Mandel track sprayer equipped with 8002E nozzles calibrated to deliver 187 L/ha over an application area of 0.503 square meters (m^2) at a spray height of 18 inches (43 centimeters (cm)) above the average plant canopy. Control plants were sprayed in the same manner with the solvent blank. All herbicide (component a) application rates are given as “g ae/ha” and all safener (component b) application rates are given as “g ai/ha.”
as §4

[7] = test system: nutsedge (CYPES, Cyperus esculentus); test: Greenhouse postemergence trial, visual injury on nutsedge
Description: as §1, §2, §5, §6, §4

[8] = test system: common sunflower (HELAN, Helianthus annuus); test: Greenhouse postemergence trial, visual injury on common sunflower
Description: as §1, §2, §5, §6, §4

[9] = test system: common lambsquarters (CHEAL, Chenopodium album L.); test: Greenhouse postemergence trial, visual injury on common lambsquarters; conditions: Table 19
Description: as §1, §2, §3, §4

[10] = test system: Italian ryegrass (LOLMU, Lolium multiflorum); test: Greenhouse postemergence trial, visual injury on Italian ryegrass; conditions: Table 19
Description: as §1, §2, §3, §4

[11] = test system: Polygonum convulvus (wild buckwheat), POLCO; test: Greenhouse postemergence trial, visual injury on wild buckwheat
Description: as §1, §2, §5, §6, §4

[12] = test system: soybean (GLXMA, Glycine max); test: Greenhouse postemergence trial, visual injury on soybean; conditions: Table 19
Description: as §1, §2, §3, §4

[13] = Compound A 20 g/ha alone, Table 19
[14] = Compound A 40 g/ha alone, Table 17
[15] = Compound A 40 g/ha alone, Table 18
[16] = CQC-mexyl 20 g/ha alone, Table 17
[17] = CQC-mexyl 20 g/ha alone, Table 19
[18] = CQC-mexyl 40 g/ha alone, Table 17
[19] = CQC-mexyl 40 g/ha alone, Table 19
[20] = CQC-mexyl 80 g/ha alone, Table 17
[21] = CQC-mexyl 80 g/ha alone, Table 19
[22] = CQC-mexyl 120 g/ha alone, Table 17

N#CCOC(=O)c1nc(-c2ccc3cc[nH]c3c2F)c(F)c(N)c1Cl [Compound A, cyanomethyl 4-amino-3-chloro-5-fluoro-6-(7-fluoro-1H-indol-6-yl)pyridine-2-carboxylate]
% visual injury, Ob ([1]; Compound A 20 g/ha alone): 0%
% visual injury, Ob ([2]; Compound A 20 g/ha alone): 65%
% visual injury, Ob ([3]; Compound A 20 g/ha alone): 30%
% visual injury, Ob ([4]; Compound A 20 g/ha alone): 97%
% visual injury, Ob ([5]; Compound A 20 g/ha alone): 0%
% visual injury, Ob ([6]; Compound A 40 g/ha alone, Table 14): 45%
% visual injury, Ob ([6]; herbicide alone 40 g/ha): 45%
% visual injury, Ob (maize (ZEAMX); [13]): 13%
% visual injury, Ob (maize (ZEAMX); [14]): 55%
% visual injury, Ob (maize (ZEAMX); [15]): 55%
% visual injury, Ob [7, 13]: 30%
% visual injury, Ob [7, 14]: 73%
% visual injury, Ob [7, 15]: 73%
% visual injury, Ob [8, 13]: 95%
% visual injury, Ob [8, 14]: 100%
% visual injury, Ob [8, 15]: 100%
% visual injury, Ob ([9]; Compound A 20 g/ha alone): 88%
% visual injury, Ob ([10]; Compound A 20 g/ha alone): 5%
% visual injury, Ob [11, 13]: 100%
% visual injury, Ob ([12]; Compound A 20 g/ha alone): 100%

CCCCCC(C)OC(=O)COc1ccc(Cl)c2cccnc12 (centres unmarked) [CQC-mexyl, cloquintocet-mexyl]
% visual injury, Ob ([1]; CQC-mexyl 20 g/ha alone): 0%
% visual injury, Ob ([1]; CQC-mexyl 40 g/ha alone): 0%
% visual injury, Ob ([1]; CQC-mexyl 80 g/ha alone): 0%
% visual injury, Ob ([2]; CQC-mexyl 20 g/ha alone): 0%
% visual injury, Ob ([2]; CQC-mexyl 40 g/ha alone): 0%
% visual injury, Ob ([2]; CQC-mexyl 80 g/ha alone): 0%
% visual injury, Ob ([3]; CQC-mexyl 20 g/ha alone): 0%
% visual injury, Ob ([3]; CQC-mexyl 40 g/ha alone): 0%
% visual injury, Ob ([3]; CQC-mexyl 80 g/ha alone): 0%
% visual injury, Ob ([4]; CQC-mexyl 20 g/ha alone): 0%
% visual injury, Ob ([4]; CQC-mexyl 40 g/ha alone): 0%
% visual injury, Ob ([4]; CQC-mexyl 80 g/ha alone): 0%
% visual injury, Ob ([5]; CQC-mexyl 20 g/ha alone): 0%
% visual injury, Ob ([5]; CQC-mexyl 40 g/ha alone): 0%
% visual injury, Ob ([5]; CQC-mexyl 80 g/ha alone): 0%
% visual injury, Ob ([6]; CQC-mexyl 40 g/ha alone, Table 14): 0%
% visual injury, Ob ([6]; safener alone 40 g/ha): 0%
% visual injury, Ob (maize (ZEAMX); [16]): 0%
% visual injury, Ob (maize (ZEAMX); [17]): 0%
% visual injury, Ob (maize (ZEAMX); [18]): 0%
% visual injury, Ob (maize (ZEAMX); [19]): 0%
% visual injury, Ob (maize (ZEAMX); [20]): 0%
% visual injury, Ob (maize (ZEAMX); [21]): 0%
% visual injury, Ob (maize (ZEAMX); [22]): 0%
% visual injury, Ob [7, 16]: 0%
% visual injury, Ob [7, 17]: 0%
% visual injury, Ob [7, 18]: 0%
% visual injury, Ob [7, 19]: 0%
% visual injury, Ob [7, 20]: 0%
% visual injury, Ob [7, 21]: 0%
% visual injury, Ob [7, 22]: 0%
% visual injury, Ob [8, 16]: 0%
% visual injury, Ob [8, 17]: 0%
% visual injury, Ob [8, 18]: 0%
% visual injury, Ob [8, 19]: 0%
% visual injury, Ob [8, 20]: 0%
% visual injury, Ob [8, 21]: 0%
% visual injury, Ob [8, 22]: 0%
% visual injury, Ob ([9]; CQC-mexyl 20 g/ha alone): 0%
% visual injury, Ob ([9]; CQC-mexyl 40 g/ha alone): 0%
% visual injury, Ob ([9]; CQC-mexyl 80 g/ha alone): 0%
% visual injury, Ob ([10]; CQC-mexyl 20 g/ha alone): 0%
% visual injury, Ob ([10]; CQC-mexyl 40 g/ha alone): 0%
% visual injury, Ob ([10]; CQC-mexyl 80 g/ha alone): 0%
% visual injury, Ob [11, 17]: 0%
% visual injury, Ob [11, 19]: 0%
% visual injury, Ob [11, 21]: 0%
% visual injury, Ob ([11]; safener alone 5 g/ha): 0%
% visual injury, Ob ([11]; safener alone 10 g/ha): 0%
% visual injury, Ob ([11]; safener alone 20 g/ha): 0%
% visual injury, Ob ([11]; safener alone 40 g/ha): 0%
% visual injury, Ob ([12]; CQC-mexyl 20 g/ha alone): 0%
% visual injury, Ob ([12]; CQC-mexyl 40 g/ha alone): 0%
% visual injury, Ob ([12]; CQC-mexyl 80 g/ha alone): 0%

Source: patent publication US12310364B2, “Safened compositions comprising pyridine carboxylate herbicides and cloquintocet” (Corteva Agriscience LLC, priority 2018, dated 2025)
